Values after ≈ are worked out from the molar mass of the structure shown. Like-named read-outs stand apart in the source and are kept apart here.
Legend:
Type in all cases: cell-based
E. coli ATCC25922 = test: Bacterial growth minimal inhibitory concentration (microdilution, cation-adjusted Mueller-Hinton Broth); settings: Escherichia coli, ATCC25922; quinolone-sensitive strain
Procedure: (§1) Minimal Inhibitory Concentrations (MICs; mg/L) were determined in cation-adjusted Mueller-Hinton Broth by a microdilution method following the description given in “Methods for Dilution Antimicrobial Susceptibility Tests for Bacteria that grow Aerobically”, Approved standard, 7th ed., Clinical and Laboratory Standards Institute (CLSI) Document M7-A7, Wayne, Pa., USA (2006).
(§2) All Example compounds were tested against several Gram-positive and Gram-negative bacteria. […] K. pneumoniae A-651 is a multiply-resistant strain (in particular quinolone-resistant), while E. coli ATCC25922 and P. aeruginosa ATCC27853 are quinolone-sensitive strains.

K. pneumoniae A-651 = test: as above; settings: Klebsiella pneumoniae, A651; multiply-resistant strain (in particular quinolone-resistant)
Procedure: as §1, §2

P. aeruginosa ATCC27853 = test: as above; settings: Pseudomonas aeruginosa, ATCC27853; quinolone-sensitive strain
Procedure: as §1, §2

wild-type E. coli A-1261 = test: MIC against wild-type E. coli A-1261 with or without alkaline phosphatase or esterase (prodrug activation); settings: Escherichia coli
Procedure: Minimal Inhibitory Concentrations (MICs; mg/L) were determined in cation-adjusted Mueller-Hinton Broth by a microdilution method following the description given in “Methods for Dilution Antimicrobial Susceptibility Tests for Bacteria that grow Aerobically”, Approved standard, 7th ed., Clinical and Laboratory Standards Institute (CLSI) Document M7-A7, Wayne, Pa., USA (2006). The compounds of Examples 4 and 16 were tested against wild-type E. coli A-1261 in the absence of alkaline phosphatase or esterase, in the presence of an alkaline phosphatase, and in the presence of an esterase. The corresponding antibacterial test results are given in Table 2 hereafter (MICs in mg/L).

[1] = alkaline phosphatase 2 i.U./mL, read-out: MIC for E. coli A-1261 In the presence of an alkaline phosphatase (2 i.U./mL)
[2] = esterase 10 i.U./mL, read-out: MIC for E. coli A-1261 In the presence of an esterase (10 i.U./mL)
[3] = no alkaline phosphatase or esterase, read-out: MIC for E. coli A-1261 In the absence of alkaline phosphatase or esterase

SMILES | MIC (E. coli ATCC25922) [µg/mL] | MIC (K. pneumoniae A-651) [µg/mL] | MIC (P. aeruginosa ATCC27853) [µg/mL] | MIC (wild-type E. coli A-1261; [1]) [µg/mL] | MIC (wild-type E. coli A-1261; [2]) [µg/mL] | MIC (wild-type E. coli A-1261; [3]) [µg/mL]
C[C@@](CCN1Cc2cc(C#CC#C[C@H]3C[C@]3(F)CO)sc2C1=O)(C(=O)NO)S(C)(=O)=O [Example 4, (2R)-4-(2-(((1R,2R)-2-fluoro-2-(hydroxymethyl)cyclopropyl)buta-1,3-diyn-1-yl)-6-oxo-4,6-dihydro-5H-thieno[2,3-c]pyrrol-5-yl)-N-hydroxy-2-methyl-2-(methylsulfonyl)butanamide] | 0.25 (≈ 0.534 µM) | 0.5 (≈ 1.07 µM) | 0.5 (≈ 1.07 µM) | 0.25 | 0.25 | 0.125 (≈ 0.267 µM)
C[C@@](CCN1Cc2cc(C#CC#C[C@H]3C[C@]3(F)COP(=O)(O)O)sc2C1=O)(C(=O)NO)S(C)(=O)=O [Example 16, ((1R,2R)-1-fluoro-2-((5-((3R)-4-(hydroxyamino)-3-methyl-3-(methylsulfonyl)-4-oxobutyl)-6-oxo-5,6-dihydro-4H-thieno[2,3-c]pyrrol-2-yl)buta-1,3-diyn-1-yl)cyclopropyl)methyl dihydrogen phosphate] | – | – | – | 0.25 | > 8 | > 8
CN1C[C@H](C#CC#Cc2cc3c(s2)C(=O)N(CC[C@](C)(C(=O)NO)S(C)(=O)=O)C3)[C@H]1CF [Example 41, (2R)-4-(2-(((2S,3S)-2-(fluoromethyl)-1-methylazetidin-3-yl)buta-1,3-diyn-1-yl)-6-oxo-4,6-dihydro-5H-thieno[2,3-c]pyrrol-5-yl)-N-hydroxy-2-methyl-2-(methylsulfonyl)butanamide] | 0.125 (≈ 0.26 µM) | 0.25 (≈ 0.519 µM) | 1 (≈ 2.08 µM) | – | – | –
C[C@@](CCN1Cc2cc(C#Cc3ccccc3)sc2C1=O)(C(=O)NO)S(C)(=O)=O [Example 42, (2R)—N-hydroxy-2-methyl-2-(methylsulfonyl)-4-(6-oxo-2-(phenylethynyl)-4,6-dihydro-5H-thieno[2,3-c]pyrrol-5-yl)butanamide] | ≤ 0.031 | 0.125 (≈ 0.289 µM) | 2 (≈ 4.62 µM) | – | – | –

— patent US20190031676A1, “ANTIBACTERIAL ANNULATED PYRROLIDIN-2-ONE DERIVATIVES” (priority 2015, published 2019)
